Test results from PMC10706425, “Enhancing the Antimicrobial Properties of Peptides through Cell-Penetrating Peptide Conjugation: A Comprehensive Assessment” (International Journal of Molecular Sciences, 2023).

How the values were obtained:
human skin fibroblasts [1] = experiment: Cytostatic effect, cell cycle phases and mitotic activity; type: cell-based; conditions: 50 μg/mL, with and without pre-incubation
Method: (§1) The culture of normal human fibroblasts was obtained from the skin areas of the inner surface of the forearm of healthy volunteers after their consent using the explant method. All volunteers gave their informed consent for inclusion before they participated in the study. The study was conducted in accordance with the Declaration of Helsinki, and the protocol was approved by the Ethics Committee of ITEB RAS No. 43/2023. The culture of normal human fibroblasts was obtained from the skin areas of the inner surface of the forearm using the explant method. A 5 × 5 mm skin explant was washed for several minutes in phosphate buffer containing 400 μg/mL gentamicin sulfate. […] After the release of cells from the fragments, the cells were detached from the surface of the culture plastic, and the number of cells was determined. […]
(§2) To determine the mitotic activity, the cells were washed in phosphate-buffered saline (300 g, 5 min) and fixed with 70% ethanol (24 h, −20 °C). Then, they were stained with bisBenzimide H 33342 fluorescent dye at a concentration of 1 μg/mL for 10 min at room temperature, and the number of mitotic cells was counted using a DM 6000 fluorescent microscope (Leica, Wetzlar, Germany). At least 500 cells were analyzed.

E. coli (MG1655 strain) = experiment: Antibacterial activity in liquid medium; type: cell-based, Escherichia coli; conditions: LB medium, 37 °C
Description: (§3) Two S. aureus strains were used: a susceptible strain 209P and a clinical isolate strain 129B (resistant to antibiotics: benzylpenicillin, clindamycin, erythromycin, oxacillin, sulfamethoxazole, and vancomycin). Two MRSA strains were included: a susceptible strain ATCC 43300 (resistant to antibiotics: methicillin, oxacillin (beta-lactam antibiotics), ampicillin (https://www.atcc.org/products/43300 (accessed on 11 November 2023)) and a clinical isolate strain SA 180 (resistant to antibiotics: benzylpenicillin and oxacillin (beta-lactam antibiotics), ciprofloxacin, clindamycin, erythromycin, levomycetin, sulfamethoxazole, and vancomycin). One B. cereus was used: a susceptible strain, IP 5832. Two P. aeruginosa strains were included: a susceptible strain, ATCC 28753, and a resistant strain, 2943. Two E. coli strains were used: a susceptible strain, K12, and a susceptible strain, MG1655.
(§4) Determination of the growth for the bacteria S. aureus strain 209P, MRSA strain ATCC 43300, B. cereus strain IP 5832, P. aeruginosa strain ATCC 28753, and E. coli strain K12 was performed using Mueller–Hinton Broth (MHB) (Sigma-Aldrich, St. Louis, MO, USA). Bacteria of S. aureus (strain 129B) and MRSA (strain SA 180-F) were grown on the brain-heart infusion (BHI) medium, and bacteria of P. aeruginosa (strain 2943) and E. coli (strain MG1655) were grown on the LB medium. The preparation and co-incubation of peptides with bacteria were carried out as described previously. The samples were grown at 37 °C.

E. coli (K12 strain) = experiment: Antibacterial activity in liquid medium; type: cell-based, Escherichia coli; conditions: for Peptide Activity in Liquid Medium after 15 h of Incubation (Gentamicin as Positive Control): K12 strain, Mueller–Hinton broth, 37 °C, 2% DMSO; for Concentrations at which the peptide showed an antimicrobial effect (comparable to gentamicin): 15 h incubation, tested 0.75–12 µM, gentamicin 200 µM, Figures 3, 4
Description: as §3, §4

BT474 cells = experiment: Cytotoxic effect, calcein AM / propidium iodide flow cytometry; type: cell-based, human; conditions: 50 µg/mL, with and without pre-incubation; 96 h
Method: (§5) BT474 human breast duct carcinoma cells were obtained from the American Collection of Type Cell Cultures (Manassas, Virginia, VA, USA). BT474 cells were cultured in DMEM medium (Sigma-Aldrich, St. Louis, MO, USA) supplemented with 10% fetal calf serum (Gibco, Waltham, MA, USA) and 40 μg/mL gentamicin sulfate (Sigma-Aldrich, St. Louis, MO, USA) at 37 °C under conditions of 5% CO2 in the air.
The number of living and dead cells was determined by staining cells with the fluorescent dyes calcein AM (Sigma-Aldrich, St. Louis, MO, USA) and propidium iodide (Sigma-Aldrich, St. Louis, MO, USA). Cells were detached from the surface of the samples using an Accutase cocktail. Cells were stained in L-15 medium with 1% fetal bovine serum containing 1 μg/mL calcein AM and 2 μg/mL propidium iodide for 25 min at 37 °C. Live and dead cells were analyzed using a BD Accuri C6 flow cytometer (BD Bioscience, San Jose, CA, USA).

[2] = test system: P. aeruginosa (ATCC 28753 strain); experiment: Antibacterial activity in liquid medium; type: cell-based, Pseudomonas aeruginosa; conditions: for Concentrations at which the peptide showed an antimicrobial effect (comparable to gentamicin): 15 h incubation, tested 0.75–12 µM, gentamicin 200 µM, Figures 3, 4; for Peptide Activity in Liquid Medium after 15 h of Incubation (Gentamicin as Positive Control): ATCC 28753, Mueller–Hinton broth, 37 °C, 2% DMSO
Description: as §3, §4

[3] = test system: B. cereus (IP 5832 strain); experiment: Antibacterial activity in liquid medium; type: cell-based, Bacillus cereus; conditions: 15 h incubation; tested 0.75–12 µM; gentamicin 200 µM; Figures 3, 4
Description: as §3, §4

[4] = test system: P. aeruginosa (2943 strain); experiment: Antibacterial activity in liquid medium, resistant strain; type: cell-based, Pseudomonas aeruginosa; conditions: LB medium, 37 °C
Description: as §3, §4

S. aureus (129B strain) = experiment: Antibacterial activity in liquid medium, clinical isolate; type: cell-based, Staphylococcus aureus; conditions: BHI medium, 37 °C
Description: as §3, §4

MRSA (ATCC 43300 strain) = experiment: Antibacterial activity in liquid medium; type: cell-based, Methicillin-resistant Staphylococcus aureus; conditions: for Concentrations at which the peptide showed an antimicrobial effect (comparable to gentamicin): 15 h incubation, tested 0.75–12 µM, gentamicin 200 µM, Figures 3, 4; for Peptide Activity in Liquid Medium after 15 h of Incubation (Gentamicin as Positive Control): ATCC 43300 strain, Mueller–Hinton broth, 37 °C, 2% DMSO
Description: as §3, §4

BT-474 cells = experiment: Cytostatic effect, cell cycle phases and mitotic activity; type: cell-based, human; conditions: 50 μg/mL, with and without pre-incubation
Method: as §5
To study the distribution of cells over the phases of the cell cycle, cells were collected, washed in phosphate-buffered saline (300 g, 5 min), and fixed with 70% ethanol (24 h, −20 °C). Staining was carried out for 15 min at 37 °C in the following medium: phosphate-buffered saline, 0.1% Triton X100, 10 μg/mL propidium iodide, and 100 μg/mL RNase (Biolot, St. Petersburg, Russia). The analysis was performed using a BD Accuri C6 flow cytometer (BD Bioscience, San Jose, CA, USA). The obtained results were processed in the ModFit LT 4.1 program.
as §2

S. aureus (209P strain) = experiment: Antibacterial activity in liquid medium; type: cell-based, Staphylococcus aureus; conditions: for Peptide Activity in Liquid Medium after 15 h of Incubation (Gentamicin as Positive Control): 209P strain, Mueller–Hinton broth, 37 °C, 2% DMSO; for Concentrations at which the peptide showed an antimicrobial effect (comparable to gentamicin): 15 h incubation, tested 0.75–12 µM, gentamicin 200 µM, Figures 3, 4
Description: as §3, §4

MRSA (SA 180-F strain) = experiment: Antibacterial activity in liquid medium, clinical isolate; type: cell-based, Methicillin-resistant Staphylococcus aureus; conditions: BHI medium, 37 °C
Description: as §3, §4

human skin fibroblasts [5] = experiment: Cytotoxic effect, calcein AM / propidium iodide flow cytometry; type: cell-based; conditions: 50 µg/mL, with and without pre-incubation; 96 h
Method: as §1
The number of living and dead cells was determined by staining cells with the fluorescent dyes calcein AM (Sigma-Aldrich, St. Louis, MO, USA) and propidium iodide (Sigma-Aldrich, St. Louis, MO, USA). […] Live and dead cells were analyzed using a BD Accuri C6 flow cytometer (BD Bioscience, San Jose, CA, USA).

bacteria = conditions: cited from earlier work
Description: Generally, the mechanisms by which AMPs act against bacteria depend on the properties of the bacterial cell wall. Gram-positive bacteria have a thick peptidoglycan layer, while Gram-negative bacteria have an outer membrane and a thinner peptidoglycan layer, which can impact the effectiveness of different antimicrobial strategies. […] If the peptide contained only the Antp fragment, then, in general, its antimicrobial activity was lower com ...

[6] = Thioflavin T fluorescence assay for amyloid-like aggregates; type: physicochemical; conditions: 24 h, 37 °C, 450 rpm; 50 mM TrisHCl pH 7.5, 150 mM NaCl, 20% DMSO; 200 µM ThT; peptide up to 190–380 μM (1 mg/mL)
Description: ThT, a benzothiazole dye, is known for its unique property of binding to amyloids and amyloid-like fibrils. This interaction results in a substantial increase in the fluorescence intensity of ThT, typically observed at a wavelength of around 485 nm.
The spectra of fluorescence intensity of free ThT and in solution with individual peptides were studied by us using the method of fluorescence spectroscopy as described previously.

[7] = over the tested concentration range; cited from earlier work
Method: Analysis of the cytostatic effect was performed on the basis of the distribution of cells by phases of the cell cycle and mitotic activity.

Sequence	Proliferative activity (cytostatic effect) (human skin fibroblasts [1])	Peptide Activity in Liquid Medium after 24 h of Incubation (Meropenem as a Positive Control) (E. coli (MG1655 strain))	Peptide Activity in Liquid Medium after 15 h of Incubation (Gentamicin as Positive Control) (E. coli (K12 strain))	Cytotoxic effect (BT474 cells)	Concentrations at which the peptide showed an antimicrobial effect (comparable to gentamicin) [2]	Peptide Activity in Liquid Medium after 15 h of Incubation (Gentamicin as Positive Control) [2]	Concentrations at which the peptide showed an antimicrobial effect (comparable to gentamicin) [3]	Peptide Activity in Liquid Medium after 24 h of Incubation (Meropenem as a Positive Control) [4]	Peptide Activity in Liquid Medium after 24 h of Incubation (Meropenem as a Positive Control) (S. aureus (129B strain))	Concentrations at which the peptide showed an antimicrobial effect (comparable to gentamicin) (MRSA (ATCC 43300 strain))	Peptide Activity in Liquid Medium after 15 h of Incubation (Gentamicin as Positive Control) (MRSA (ATCC 43300 strain))	Proliferative activity (cytostatic effect) (BT-474 cells)	Peptide Activity in Liquid Medium after 15 h of Incubation (Gentamicin as Positive Control) (S. aureus (209P strain))	Concentrations at which the peptide showed an antimicrobial effect (comparable to gentamicin) (S. aureus (209P strain))	Peptide Activity in Liquid Medium after 24 h of Incubation (Meropenem as a Positive Control) (MRSA (SA 180-F strain))	Cytotoxic effect (human skin fibroblasts [5])	Concentrations at which the peptide showed an antimicrobial effect (comparable to gentamicin) (E. coli (K12 strain))	Concentration with antibacterial activity, amyloidogenic fragment alone (bacteria)	ThT fluorescence intensity at ~485 nm [6]	Cytotoxic effect [7]
ITDFGIFIGLGGGGSRQIKIWFQNRRMKWKK [I31K^P, Amyloidogenic fragment of S1 from P. aeruginosa + CPP2 (Antennapedia fragment), 31 a.a]	did not even suppress their proliferative activity	>2750 µM, MG1655 strain	>12 µM, K12 strain	lacked cytotoxic effects	not found	>12 µM, ATCC 28753	12 µM	>2750 µM, 2943 strain	>2750 µM, 129B strain	did not show strong effects	>12 µM, ATCC 43300 strain	did not even suppress their proliferative activity	>12 µM, 209P strain	did not show strong effects	>2750 µM, SA 180-F strain	lacked cytotoxic effects	–	–	–	–
VTDFGVFVEIGGGGSRQIKIWFQNRRMKWKK [V31K^T]	–	>2730 µM, MG1655 strain	>12 µM, K12 strain	–	–	>12 µM, ATCC 28753	–	>2730 µM, 2943 strain	>2730 µM, 129B strain	–	>12 µM, ATCC 43300 strain	–	>12 µM, 209P strain	–	>2730 µM, SA 180-F strain	–	no significant antimicrobial effects	–	–	–
VTDFGVFVEI [Amyloidogenic fragment from S1 T. thermophilus]	–	–	–	–	–	–	–	–	–	–	–	–	–	–	–	–	–	913 µM	–	–
RKKRRQRRRGGGGITDFGIFIGLGGGGSRQIKIWFQNRRMKWKK [R44K^P, CPP1 + amyloidogenic fragment of S1 from P. aeruginosa + CPP2, dihybrid peptide, 44 a.a]	–	>1930 µM, MG1655 strain	>12 µM, K12 strain	–	6 to 12 µM	6 µM	3 to 12 µM	≥1930 µM, 2943 strain	>1930 µM, 129B strain	12 µM	12 µM	–	12 µM	12 µM	>1930 µM, SA 180-F strain	–	–	–	–	–
RKKRRQRRRGGGGITDFGIFIGL [R23L^P]	did not even suppress their proliferative activity	≥3780 µM, MG1655 strain	12 µM	lacked cytotoxic effects	6 to 12 µM	–	1.5 to 12 µM	≥3780 µM, 2943 strain	>3780 µM, 129B strain	12 µM	12 µM	did not even suppress their proliferative activity	12 µM	12 µM	>3780 µM, SA 180-F strain	lacked cytotoxic effects	12 µM	–	multiple increase in the fluorescence intensity of ThT	not been shown to have significant effects
